From patent publication US20180296456A1, “Decapeptide-12 Modulation of Sirtuin Gene Expression in Epidermal Keratinocyte Progenitors” (Escape Therapeutics, Inc., priority 2017, published 2018)
Peptide text beside a SMILES is read from it.

Columns and labels:
SIRT5 = SIRT5 transcription, semi-quantitative RT-PCR in human epidermal progenitors; assay type: cell-based; settings: 72 h
Protocol: (§1) Human neonatal epidermal progenitors (Thermo Fisher Scientific, NY) were seeded in 6-well plates at a density of 2×10^5 cells/well. Each well received 2 ml of Epilife media containing 60 μM calcium chloride (Thermo Fisher Scientific, NY). Plates were incubated in a humidified chamber at 37 degrees Celsius and 5 percent CO2. Twenty-four hours later, cells were treated with various concentrations of oxyresveratrol or decapeptide-12 dissolved in PBS containing 5 percent DMSO. Control wells received vehicle only (5 percent DMSO and PBS). Final concentration of DMSO in each well was 0.05 percent.
(§2) After a 72 hour incubation period, cells were trypsinized and total RNA extracted, using RNeasy kit (Qiagen, Valencia, Calif.) according to the manufacturer's protocol.
(§3) RNA concentration was determined using nanodrop (Thermo fisher scientific, NY). Two μg of total RNA were used to synthesize cDNA using oligo dT primers and TaqMan reverse transcription reagents (Thermo fisher scientific, NY). The reaction was carried out in DNA Engine Peltier Thermal Cycler (Bio-Rad, Hercules, Calif.). The annealing temperature was 25 degrees Celsius for 10 minutes, followed by first strand synthesis at 48 degrees Celsius for 1 hour, and heat inactivation at 95 degrees Celsius for 5 minutes.
(§4) The SIRT1-7 primers (table 1) were designed using Primer3. The semi-quantitative PCR reactions were performed on a DNA Engine Peltier Thermo Cycler (Bio-Rad, Hercules, Calif.). PCR was carried under the following conditions: denaturation at 94 degrees Celsius for 2 minutes and primer extension at 54 degrees Celsius for 30 seconds in 34 cycles for SIRT 1-7 and the housekeeping gene 18S.
(§5) Samples were run and resolved on a 1.5 percent agarose gel containing 0.5 μg/ml of ethidium bromide and imaged using the FluorChem HD2 Imaging System (Protein simple, San Jose, Calif.). Densitometry analysis was carried out using the AlphaEase FC software (Protein simple, San Jose, Calif.). Intensity ratios were calculated as the intensity value for each gene divided by the intensity value of the internal control gene 18S.
(§6) The effect of the decapeptides P4, P4A, P4B, and P4C upon the transcription levels of sirtuins 1-7 was evaluated. Table 4 summarizes transcription levels for all four decapeptides with the corresponding genes, at tested concentrations of: 10, 30, 50, 100, and 300 (all in μM).

SIRT4 = SIRT4 transcription, semi-quantitative RT-PCR in human epidermal progenitors; assay type: cell-based; settings: 72 h
Protocol: as §1, §2, §3, §4, §5, §6

SIRT1 = SIRT1 transcription, semi-quantitative RT-PCR in human epidermal progenitors; assay type: cell-based; settings: 72 h
Protocol: as §1, §2, §3, §4, §5, §6

[1] = Trypan blue cell viability, 7 days, melanoblasts; assay type: cell-based; settings: human, relative to control, read-out: melanoblast viability after 7 days
Protocol: (§7) The effect of each of the decapeptides upon cell viability was also tested. In particular, cells were incubated with the decapeptide at various concentrations and then counted for viability relative to the control (untreated cells) using trypan blue. Cytotoxicity was measured according to the following formula:
(§8) [1−(# of cells in control−# of live cells in test sample)/# of cells in control]×100 percent.

SIRT7 = SIRT7 transcription, semi-quantitative RT-PCR in human epidermal progenitors; assay type: cell-based; settings: 72 h
Protocol: as §1, §2, §3, §4, §5, §6

[2] = MTT cell proliferation assay, fibroblasts; assay type: cell-based, human; settings: human, MTT, 72 h, read-out: fibroblast proliferation rate after 72 hours
Protocol: (§9) Proliferation rates for three human cell lines (epidermal progenitors, melanoblasts, and fibroblasts) were determined using a TACS® MTT Cell Proliferation Kit. Cells were seeded at 2.5×10^4/well in 96-well plates in a humidified atmosphere with 5 percent CO2 at 37 degrees Celsius. Twenty-four hours later, the decapeptides were added to the corresponding wells at varying concentrations and incubated for 72 hours. The remainder of the procedure was performed following the manufacturer's protocol.

SIRT3 = SIRT3 transcription, semi-quantitative RT-PCR in human epidermal progenitors; assay type: cell-based; settings: 72 h
Protocol: as §1, §2, §3, §4, §5, §6

[3] = Trypan blue cell viability, 7 days, fibroblasts; assay type: cell-based; settings: human, relative to control, read-out: fibroblast viability after 7 days
Protocol: as §7, §8

[4] = MTT cell proliferation assay, melanoblasts; assay type: cell-based, human; settings: human, MTT, 72 h, read-out: melanoblast proliferation rate after 72 hours
Protocol: as §9

SIRT6 = SIRT6 transcription, semi-quantitative RT-PCR in human epidermal progenitors; assay type: cell-based; settings: 72 h
Protocol: as §1, §2, §3, §4, §5, §6

CCCCCCCCCCCCCCCC(=O)N[C@@H](Cc1ccc(O)cc1)C(=O)N[C@@H](CCCNC(=N)N)C(=O)N[C@@H](CO)C(=O)N[C@@H](CCCNC(=N)N)C(=O)N[C@@H](CCCCN)C(=O)N[C@@H](Cc1ccc(O)cc1)C(=O)N[C@@H](CO)C(=O)N[C@@H](CO)C(=O)N[C@@H](Cc1c[nH]c2ccccc12)C(=O)N[C@@H](Cc1ccc(O)cc1)C(N)=O [P4A, Palmitoyl-YRSRKYSSWY-amide] (HELM PEPTIDE1{[CCCCCCCCCCCCCCCC(=O)[*:2]].Y.R.S.R.K.Y.S.S.W.Y.[am]}$$$$V2.0)
SIRT5 transcription increase relative to control (SIRT5; 10 μM): 13 ± 2%
SIRT5 transcription increase relative to control (SIRT5; 30 μM): 12 ± 2%
SIRT5 transcription increase relative to control (SIRT5; 50 μM): 10 ± 3%
SIRT5 transcription increase relative to control (SIRT5; 100 μM): 47 ± 7%
SIRT5 transcription increase relative to control (SIRT5; 300 μM): 29 ± 4%
SIRT4 transcription increase relative to control (SIRT4; 10 μM): 16 ± 1%
SIRT4 transcription increase relative to control (SIRT4; 30 μM): 16 ± 1%
SIRT4 transcription increase relative to control (SIRT4; 50 μM): 9 ± 4%
SIRT4 transcription increase relative to control (SIRT4; 100 μM): 98 ± 12%
SIRT4 transcription increase relative to control (SIRT4; 300 μM): 65 ± 1%
SIRT1 transcription increase relative to control (SIRT1; 10 μM): 18 ± 2%
SIRT1 transcription increase relative to control (SIRT1; 30 μM): 19 ± 1%
SIRT1 transcription increase relative to control (SIRT1; 50 μM): 42 ± 5%
SIRT1 transcription increase relative to control (SIRT1; 100 μM): 144 ± 5%
SIRT1 transcription increase relative to control (SIRT1; 300 μM): 184 ± 2%
viability at 168 h, 3 µM ([1]; 3 μM): 100%
viability at 168 h, 10 µM ([1]; 10 μM): 99 ± 1%
viability at 168 h, 30 µM ([1]; 30 μM): 98.5 ± 1%
viability at 168 h, 50 µM ([1]; 50 μM): 98 ± 1%
viability at 168 h, 100 µM ([1]; 100 μM): 97 ± 2%
viability at 168 h, 300 µM ([1]; 300 μM): 96.2 ± 2%
viability at 168 h, 500 µM ([1]; 500 μM): 95.6 ± 2%
viability at 168 h, 1000 µM ([1]; 1000 μM): 94.8 ± 2%
SIRT7 transcription increase relative to control (SIRT7; 10 μM): 29 ± 6%
SIRT7 transcription increase relative to control (SIRT7; 30 μM): 33 ± 5%
SIRT7 transcription increase relative to control (SIRT7; 50 μM): 52 ± 4%
SIRT7 transcription increase relative to control (SIRT7; 100 μM): 87 ± 6%
SIRT7 transcription increase relative to control (SIRT7; 300 μM): 113 ± 2%
viability at 72 h, 3 µM ([2]; 3 μM): 100%
viability at 72 h, 10 µM ([2]; 10 μM): 99 ± 1%
viability at 72 h, 30 µM ([2]; 30 μM): 98 ± 1%
viability at 72 h, 50 µM ([2]; 50 μM): 98 ± 1%
viability at 72 h, 100 µM ([2]; 100 μM): 97 ± 2%
viability at 72 h, 300 µM ([2]; 300 μM): 97 ± 2%
viability at 72 h, 500 µM ([2]; 500 μM): 96 ± 2%
viability at 72 h, 1000 µM ([2]; 1000 μM): 95 ± 2%
SIRT3 transcription increase relative to control (SIRT3; 10 μM): 25 ± 4%
SIRT3 transcription increase relative to control (SIRT3; 30 μM): 26 ± 3%
SIRT3 transcription increase relative to control (SIRT3; 50 μM): 60 ± 4%
SIRT3 transcription increase relative to control (SIRT3; 100 μM): 152 ± 2%
SIRT3 transcription increase relative to control (SIRT3; 300 μM): 147 ± 2%
viability at 168 h, 3 µM ([3]; 3 μM): 100%
viability at 168 h, 10 µM ([3]; 10 μM): 98.9 ± 1%
viability at 168 h, 30 µM ([3]; 30 μM): 98.4 ± 1%
viability at 168 h, 50 µM ([3]; 50 μM): 98 ± 1%
viability at 168 h, 100 µM ([3]; 100 μM): 97.4 ± 2%
viability at 168 h, 300 µM ([3]; 300 μM): 96.6 ± 2%
viability at 168 h, 500 µM ([3]; 500 μM): 95.5 ± 2%
viability at 168 h, 1000 µM ([3]; 1000 μM): 94.3 ± 2%
viability at 72 h, 3 µM ([4]; 3 μM): 100%
viability at 72 h, 10 µM ([4]; 10 μM): 100%
viability at 72 h, 30 µM ([4]; 30 μM): 99 ± 1%
viability at 72 h, 50 µM ([4]; 50 μM): 98 ± 1%
viability at 72 h, 100 µM ([4]; 100 μM): 97 ± 2%
viability at 72 h, 300 µM ([4]; 300 μM): 97 ± 2%
viability at 72 h, 500 µM ([4]; 500 μM): 96 ± 2%
viability at 72 h, 1000 µM ([4]; 1000 μM): 95 ± 2%
SIRT6 transcription increase relative to control (SIRT6; 10 μM): 24 ± 5%
SIRT6 transcription increase relative to control (SIRT6; 30 μM): 25 ± 5%
SIRT6 transcription increase relative to control (SIRT6; 50 μM): 33 ± 7%
SIRT6 transcription increase relative to control (SIRT6; 100 μM): 135 ± 10%
SIRT6 transcription increase relative to control (SIRT6; 300 μM): 85 ± 5%
